Reference: patent US7618984B2, “Sulfonamide compound” (Asahi Kasei Pharma Corporation, priority 2005, dated 2009)

What was measured:
[1] = test system: rabbit normal intraocular pressure; test: Intraocular pressure reducing action (Test Example 2); assay type: in vivo, Japanese white rabbit; conditions: Oryctolagus cuniculus, topical; 3 mM aqueous solution, 50 μl to the left eye; measured after 2, 4 and 6 hours; read-out: intraocular pressure reducing degree (max ΔIOP / intraocular pressure value immediately before administration × 100)
Procedure: A Japanese white rabbit having a body weight of about 2 kg was placed in a positioner and naturalized for one week before the experiment. An opthalmologic local anesthesant (Benoxil) was administered to both eyes, and then intraocular pressure was measured by using a tonometer (Classic 30, Solan). A 3 mM aqueous solution of a test compound was administered in a volume of 50 μl to the left eye, and the right eye was not treated (control eye). The intraocular pressure values were measured for the left and right eyes immediately before, and 2, 4 and 6 hours after the administration of the aqueous solution of the test compound, and the difference of the measured values for the left and right eyes was considered an intraocular pressure reduction value of the test medicament at each measurement time. The largest difference of the values for the left and right eyes among the measured values at the measurement times (after 2, 4 and 6 hours) was considered the maximum intraocular pressure reduction value (max ΔIOP) of each test medicament. The intraocular pressure reducing degree representing the intraocular pressure reducing action of each test medicament was calculated according to the following formula. Since rabbits show significant daily variation of intraocular pressure, daily variation is added when change of intraocular pressure is measured over time, and the intraocular pressure reducing action may be overestimated. Therefore, we used this calculation method of intraocular pressure reduction value in order to minimize the influence of the variation. Intraocular pressure reducing degree (%)=(max ΔIOP/Intraocular pressure value immediately before administration)×100

[2] = test system: rabbit intraocular pressure; test: Rabbit intraocular pressure reduction enhancing action, combination use (Test Example 6-1); assay type: in vivo, Japanese white rabbit; conditions: 50 μL, difference of left and right eyes, 2, 4 and 6 hours
Procedure: However, the effect is not limited to the 19-1 compound, and the ophthalmic solution concentration of the 19-1 compound is not limited to those used in this test example. Moreover, as for the test compound used for combination use, similar effect can be obtained also with the compounds of the present invention represented with the example numbers mentioned in Test Example 2.
As a test compound, the 19-1 compound was dissolved in physiological saline, and the solution was neutralized by addition of sodium hydroxide (pH 7.0 to 8.0) to prepare a 0.01 weight % aqueous solution (19-1 compound aqueous solution). As the drugs for combination use, isopropyl unoprostone (trade name: Rescula, Santen Pharmaceutical) was used as a prostaglandin-related drug, and brinzolamide hydrochloride (trade name: Azopt, Alcon Japan) was used as […], as the marketed formulations as they were.
A Japanese white rabbit having a body weight of about 2 kg was placed in a positioner and naturalized for one week before the experiment. An opthalmologic local anesthesant (Benoxil) was administered to both eyes, and then intraocular pressure before instillation was measured by using a tonometer (Classic 30, Solan). A test aqueous solution or the drug for combination use was administered to the left eye, and the right eye was not treated (control eye). The test groups consisted of (1) control group, (2) group instilled only with the 19-1 compound aqueous solution (single drug group 1), (3) group instilled only with the drug for combination use (single drug group 2), and (4) group instilled with the drug for combination use and the 19-1 compound aqueous solution (combination use group), and six rabbits were used for each group. As for the rabbits of these groups, 50 μL of physiological saline was first instilled to the control group, single drug group 1, and single drug group 2, and the drug for combination use was first instilled in the same volume to the combination use group. […] The intraocular pressure thereafter was measured for each group 2, 4 and 6 hours after the second administration of the test compound, and the difference of the measured values for the left and right eyes at each measurement time was considered an intraocular pressure reduction value of each group. The largest difference of the intraocular pressure values for the left and right eyes among those of the measured values of the measurement times was considered the maximum intraocular pressure reduction value (max ΔIOP) of each drug group.

neutrophils = test: Neutrophil migration inhibitory action, Boyden Chamber, FMLP (Test Example 3); assay type: cell-based; conditions: 0.5 h, human neutrophils, FMLP 1 μM, 37° C., 30 minutes, read-out: IC50, compound concentration providing a migration inhibition ratio of 50%
Procedure: Neutrophils were isolated from 50 to 100 ml of peripheral blood collected from healthy human donors by the method described in Test Example 1 to obtain a cell suspension (8×10^6/ml). Subsequently, solutions of a test compound at various concentrations were introduced into wells of a 96-well plate in a volume of 125 μl per well, the cell suspension of an equivalent volume was added to it and the plate was preincubated at room temperature for 5 minutes. During the preincubation, FMLP (1 μM, Sigma) solution was added to the lower chamber to set Boyden Chamber, the preincubated cell suspension was added to the upper chamber in a volume of 200 μl per well, and the cells were allowed to migrate at 37° C. under 5% carbon dioxide for 30 minutes. The filter after the migration was collected, and the non-migrated cells adhered to the surface that faced the upper chamber were carefully wiped off. Then, the migrated cells on the back surface were stained with DifQuick dye solution (International Reagents), washed with water and dried, and then absorbance was measured at 595 nm. The inhibition ratio against migration (%) of a test compound was calculated by using the following equation: Migration inhibition ratio(%)=(1−Absorbance of the group with addition of test compound/Absorbance of the group without addition of test compound)×100
Further, the migration inhibitory ratio was calculated with changing the test compound concentration, and a compound concentration providing an inhibition ratio of 50% was obtained as IC50.

- IC50 (neutrophils): 10 to 40 µM
Structure (SMILES): N[C@H]1CCN(S(=O)(=O)c2cccc3cncc(Cl)c23)C1 [Example 19-1, (S)-3-Amino-1-(4-chloro-5-isoquinolinesulfonyl)pyrrolidine]
- inhibition in vivo at 3000 µM [1]: ≥ 20%
- Max ΔIOP (maximum intraocular pressure reduction value), Table 2 ([2]; 0.01 weight % 19-1 compound aqueous solution and/or brinzolamide hydrochloride (Azopt)): 4.3 mmHg
- Max ΔIOP (maximum intraocular pressure reduction value), Table 3 ([2]; 0.01 weight % 19-1 compound aqueous solution and/or isopropyl unoprostone (Rescula)): 4.3 mmHg
